Assay results as given in patent US7429578B2, “Tricyclic inhibitors of poly(ADP-ribose) polymerases” (Agouron Pharmaceuticals, Inc., priority 1999, dated 2008).
Values joined by “and” are separate entries in the source; they are usually repeats but may differ in a detail not shown here. Equal values may be shown once. Where a name gives a salt, the structure may show the parent alone. Read-outs that look alike come from different tables or passages of the source.

Experiments:
purified PARP protein = purified PARP protein (Homo sapiens, UniProt P09874); assay: PARP enzyme inhibition assay; assay type: biochemical
[1] = [32P]NAD+ incorporation, 500 μM NAD+, 25° C., two values in a cell = tested twice, read-out: Inhibition Constant Ki

purified PARP protein, sequence (P09874 whole entry): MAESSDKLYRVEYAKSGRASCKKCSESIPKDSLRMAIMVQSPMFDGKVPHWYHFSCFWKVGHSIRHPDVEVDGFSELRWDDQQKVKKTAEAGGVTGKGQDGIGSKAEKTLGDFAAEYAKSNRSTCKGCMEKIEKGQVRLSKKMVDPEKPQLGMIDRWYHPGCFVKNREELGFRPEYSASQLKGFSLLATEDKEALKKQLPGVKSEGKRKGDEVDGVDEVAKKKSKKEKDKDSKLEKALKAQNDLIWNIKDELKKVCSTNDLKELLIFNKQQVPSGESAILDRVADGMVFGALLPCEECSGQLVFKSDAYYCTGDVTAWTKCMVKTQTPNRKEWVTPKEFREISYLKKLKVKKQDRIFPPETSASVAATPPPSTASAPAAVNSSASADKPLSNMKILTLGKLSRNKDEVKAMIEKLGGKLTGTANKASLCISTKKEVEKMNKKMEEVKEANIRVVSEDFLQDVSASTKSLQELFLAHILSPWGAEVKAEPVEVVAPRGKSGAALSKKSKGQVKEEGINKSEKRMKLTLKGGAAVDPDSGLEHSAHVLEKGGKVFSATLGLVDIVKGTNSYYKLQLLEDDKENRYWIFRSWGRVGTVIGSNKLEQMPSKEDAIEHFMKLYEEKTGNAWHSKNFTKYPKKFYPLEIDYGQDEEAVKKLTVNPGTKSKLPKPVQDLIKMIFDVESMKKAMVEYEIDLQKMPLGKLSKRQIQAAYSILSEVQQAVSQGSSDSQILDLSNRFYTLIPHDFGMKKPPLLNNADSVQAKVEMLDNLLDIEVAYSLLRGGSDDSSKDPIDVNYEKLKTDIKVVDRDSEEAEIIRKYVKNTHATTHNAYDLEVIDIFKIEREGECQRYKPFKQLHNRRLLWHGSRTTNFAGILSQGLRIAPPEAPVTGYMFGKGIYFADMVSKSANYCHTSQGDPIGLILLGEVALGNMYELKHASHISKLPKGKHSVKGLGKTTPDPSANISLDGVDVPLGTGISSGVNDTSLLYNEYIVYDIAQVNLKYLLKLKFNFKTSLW

Compound	Ki (purified PARP protein; [1])	melting point	Ki (purified PARP protein; Inhibition Constant Ki)
O=C1NCC(c2ccccc2)c2c[nH]c3cccc1c23 (racemic) [Compound 20, (rac)-3-Phenyl-3,4,5,6-tetrahydro-1H-azepino[5,4,3-cd]indol-6-one]	45 nM	–	–
COc1ccc(C2CNC(=O)c3cccc4[nH]cc2c34)cc1 (racemic) [RRRR, (rac)-3-(4-Methoxyphenyl)-3,4,5,6-tetrahydro-1H-azepino[5,4,3-cd]indol-6-one]	61 nM	–	–
COC(=O)CCc1ccccc1-c1[nH]c2cccc3c2c1CCNC3=O [AAA, 3-[2-(6-Oxo-3,4,5,6-tetrahydro-1H-azepino[5,4,3-cd]indol-2-yl)-phenyl]-propionic acid methyl ester]	11.4 nM	201 to 201.5 °C	–
O=C1NN=Cc2c(-c3ccc(F)cc3)[nH]c3cccc1c23 [AAAA]	1.1 nM	–	–
O=C1NCCc2c(-c3ccccc3CCCO)[nH]c3cccc1c23 [BBB, 2-[2-(3-Hydroxy-propyl)-phenyl]-1,3,4,5-tetrahydro-azepino[5,4,3-cd]indol-6-one]	20 nM	233.5 to 234.5 °C	–
O=C1NCCc2c(-c3cccs3)[nH]c3cccc1c23 [BBBB, 2-Thiophen-2-yl-1,3,4,5-tetrahydro-azepino[5,4,3-cd]indol-6-one]	–	220.5 to 222.5 °C	–
O=C1NCCc2c(-c3ccc(O)cc3)[nH]c3cccc1c23 [CCC, 2-(4-Hydroxy-phenyl)-1,3,4,5-tetrahydro-azepino[5,4,3-cd]indol-6-one]	7.3 nM	300 °C (dec.)	–
O=C1NCCc2c(-c3ccsc3)[nH]c3cccc1c23 [CCCC, 2-Thiophen-3-yl-1,3,4,5-tetrahydro-azepino[5,4,3-cd]indol-6-one]	4.8 nM	255 to 256 °C	–
O=C1NCc2c(-c3ccccc3)[nH]c3cccc1c23 [Compound 3, Phenyl-3,4-dihydropyrrolo[4,3,2-de]isoquinolin-5-(1H)-one]	2.8 nM	–	–
O=C1NCCc2c[nH]c3cccc1c23 [Compound 10, 3,4,5,6-tetrahydro-1H-azepino[5,4,3-cd]indol-6-one]	38 nM	–	–
O=C1NCCc2c(Br)[nH]c3cccc1c23 [Compound 11, 2-Bromo-3,4,5,6-tetrahydro-1H-azepino[5,4,3-cd]indol-6-one]	7.3 nM	–	–
O=C1NCCc2c(-c3cccc([N+](=O)[O-])c3)[nH]c3cccc1c23 [Compound 14, 2-(3-Nitrophenyl)-3,4,5,6-tetrahydro-1H-azepino[5,4,3-cd]indol-6-one]	1.4 nM	–	–
O=C1NCCc2c(C#Cc3ccccc3)[nH]c3cccc1c23 [Compound 17]	6.5 nM	–	–
Cn1c(-c2ccccc2)c2c3c(cccc31)C(=O)NCC2 [Compound 18, 1-Methyl-2-phenyl-3,4,5,6-tetrahydro-1H-azepino[5,4,3-cd]indol-6-one]	> 1000 nM	–	–
CN1CCc2c(-c3ccccc3)n(C)c3cccc(c23)C1=O [Compound 18a, 1,5-dimethyl-2-phenyl-3,4,5,6-tetrahydro-1H-azepino[5,4,3-cd]indol-6-one]	–	175 to 177 °C	–
Cn1cc2c3c(cccc31)C(=O)NCC2 [Compound 19, 1-N-Methyl-3,4,5,6-tetrahydro-1H-azepino[5,4,3-cd]indol-6-one]	62 nM	194 to 195 °C	–
CN(C)Cc1cccc(-c2[nH]c3cccc4c3c2CNC4=O)c1 [Compound 25]	4 nM	–	–
O=C1NCCc2c(-c3ccccc3)[nH]c3cc(Br)cc1c23 [Compound 26, 8-Bromo-2-phenyl-3,4,5,6-tetrahydro-1H-azepino[5,4,3-cd]indol-6-one]	22 nM and 18 nM	–	–
O=C1NCCc2c(-c3ccc(C(F)(F)F)cc3)[nH]c3cccc1c23 [Compound 31, 2-(4-Trifluoromethyl-phenyl)-1,3,4,5-tetrahydro-azepino[5,4,3-cd]indol-6-one]	5 nM	208 to 209 °C	–
O=C1NCCc2c(-c3cc4ccccc4o3)[nH]c3cccc1c23 [Compound 32, 2-Benzofuran-2-yl-1,3,4,5-tetrahydro-azepino[5,4,3-cd]indol-6-one]	11.3 nM	207 °C (dec.)	–
O=C1NCCc2c(-c3cc(C(F)(F)F)cc(C(F)(F)F)c3)[nH]c3cccc1c23 [Compound 33, 2-(3,5-bis-Trifluoromethyl-phenyl)-1,3,4,5-tetrahydro-azepino[5,4,3-cd]indol-6-one]	230 nM	230 °C (dec.)	–
O=C1NCCc2c(-c3ccc(Br)cc3)[nH]c3cccc1c23 [Compound 34, 2-(4-Bromophenyl)-1,3,4,5-tetrahydro-azepino[5,4,3-cd]indol-6-one]	3.9 nM	160 °C (dec.)	–
O=C1NCCc2c(-c3ccc(F)c(Cl)c3)[nH]c3cccc1c23 [Compound 35, 2-(3-Chloro-4-fluoro-phenyl)-1,3,4,5-tetrahydro-azepino[5,4,3-cd]indol-6-one]	3.8 nM and 5.8 nM	–	–
CC(C)(C)c1ccc(-c2[nH]c3cccc4c3c2CCNC4=O)cc1 [Compound 36, 2-(4-tert-Butyl-phenyl)-1,3,4,5-tetrahydro-azepino[5,4,3-cd]indol-6-one]	29 nM	243 to 244 °C	–

Compound	Ki (purified PARP protein; [1])	melting point	Ki (purified PARP protein; Inhibition Constant Ki)
O=C1NCCc2c(CCc3ccccc3)[nH]c3cccc1c23 [Compound 37, 2-Phenethyl-1,3,4,5-tetrahydro-azepino[5,4,3-cd]indol-6-one]	24 nM	207 to 208 °C	–
O=C1NCCc2c(-c3ccccc3Cl)[nH]c3cccc1c23 [Compound 38, 2-(2-Chlorophenyl)-1,3,4,5-tetrahydro-azepino[5,4,3-cd]indol-6-one]	8.4 nM	275 °C (dec.)	–
O=C1NCCc2c(-c3ccc(F)cc3F)[nH]c3cccc1c23 [Compound 39, 2-(2,4-Difluoro-phenyl)-1,3,4,5-tetrahydro-azepino[5,4,3-cd]indol-6-one]	4.8 nM	196 to 197 °C	–
O=C1NCCc2c(-c3cccc(Cl)c3)[nH]c3cccc1c23 [Compound 40, 2-(3-Chlorophenyl)-1,3,4,5-tetrahydro-azepino[5,4,3-cd]indol-6-one]	5.2 nM	147 to 149 °C	–
O=C1NCCc2c(-c3cccc4ccccc34)[nH]c3cccc1c23 [Compound 41, 2-Naphthalen-1-yl-1,3,4,5-tetrahydro-azepino[5,4,3-cd]indol-6-one]	–	305 °C (dec.)	–
COC(=O)c1[nH]c2cccc3c2c1CCNC3=O [Compound 42, 6-Oxo-3,4,5,6-tetrahydro-1H-azepino[5,4,3-cd]indole-2-carboxylic acid methyl ester]	5.1 nM	266 to 267 °C	–
O=C1NCCc2c(I)[nH]c3cccc1c23 [Compound 43, 2-Iodo-1,3,4,5-tetrahydro-azepino[5,4,3-cd]indol-6-one]	2.6 nM	–	–
O=C1NCCc2c(-c3[nH]c4cccc5c4c3CCNC5=O)[nH]c3cccc1c23 [Compound TTT, 1,3,4,5,1′,3′,4′,5′-Octahydro-[2,2′]bi[azepino[5,4,3-cd]indolyl]-6,6′-dione]	26 nM	–	–
O=C1NCCc2c(-c3ccc[nH]3)[nH]c3cccc1c23 [DDDD, 2-(1H-Pyrrol-2-yl)-1,3,4,5-etatrhydro-azepino[5,4,3-cd]indol-6-one]	–	–	7.7 nM
O=C1NCCc2c(-c3cccnc3)[nH]c3cccc1c23 [HHH, 2-Pyridin-3-yl-1,3,4,5-tetrahydro-azepino[5,4,3-cd]indol-6-one]	–	260.5 to 262 °C	–
O=C(O)c1[nH]c2cccc3c2c1CCNC3=O [KKK, 6-Oxo-3,4,5,6-tetrahydro-1H-azepino[5,4,3-cd]indole-2-carboxylic acid sodium salt]	222 nM	–	–
O=C(Nc1ccccc1)c1[nH]c2cccc3c2c1CCNC3=O [KKKK, 6-Oxo-1,3,4,5-tetrahydro-1H-azepino[5,4,3-cd]indole-2-carboxylic Acid Phenylamide]	–	320 to 322 °C (dec.)	–
O=C(Nc1ccc(Cl)cc1)c1[nH]c2cccc3c2c1CCNC3=O [LLLL, 6-Oxo-1,3,4,5-tetrahydro-1H-azepino[5,4,3-cd]indole-2-carboxylic acid (4-chlorophenyl)-amide]	8.6 nM	–	–
O=C(Nc1ccc2ccccc2c1)c1[nH]c2cccc3c2c1CCNC3=O [MMMM, 6-Oxo-1,3,4,5-tetrahydro-1H-azepino[5,4,3-cd]indole-2-carboxylic Acid naphthalen-2-ylamide]	16 nM	–	–
CC(=O)Nc1ccc(F)cc1-c1[nH]c2cccc3c2c1CCNC3=O [NNN, N-[4-Fluoro-2-(6-oxo-3,4,5,6-tetrahydro-1H-azepino[5,4,3-cd]indol-2-yl)-phenyl]-acetamide]	172 nM	–	–
O=C(NC1CC1)c1[nH]c2cccc3c2c1CCNC3=O [QQQQ, 6-Oxo-1,3,4,5-tetrahydro-1H-azepino[5,4,3-cd]indole-2-carboxylic Acid Cyclopropylamide]	21 nM	–	–
Nc1cccc(-c2[nH]c3cccc4c3c2CCNC4=O)c1 [RR, 2-(3-Aminophenyl)-3,4,5,6-tetrahydro-1H-azepino[5,4,3-cd]indol-6-one]	6.9 nM	–	–
O=C1NCCc2c(-c3cccc(CN4CCOCC4)c3)[nH]c3cccc1c23 [SSSS, 2-(3-Morpholin-4-ylmethylphenyl)-3,4,5,6-tetrahydro-1H-azepino[5,4,3-cd]indol-6-one]	19 nM	–	–
O=C1NCCc2c(-c3ccc4[nH]ccc4c3)[nH]c3cccc1c23 [VVV, 2-(1H-Indol-5-yl)-1,3,4,5-tetrahydro-azepino[5,4,3-cd]indol-6-one]	–	315 to 317 °C (dec.)	–
O=C1NCCc2c(-c3ccc(CO)cc3)[nH]c3cccc1c23 [WWWW, 2-(4-Hydroxymethylphenyl)-3,4,5,6-tetrahydro-1H-azepino[5,4,3-cd]indol-6-one]	5.7 nM	–	–
O=C1NN=C(c2ccc(C(F)(F)F)cc2)c2c[nH]c3cccc1c23 [YYYY]	9 nM	–	–
O=C1NN=Cc2c(-c3ccc(Cl)cc3)[nH]c3cccc1c23 [ZZZ, (4-Chloro-phenyl)-1,5-dihydro-[1,2]diazepino[4,5,6-cd]indol-6-one]	0.7 nM	–	–
O=C1NN=C(C(F)(F)C(F)(F)F)c2c[nH]c3cccc1c23 [ZZZZ, 1,5-Dihydro-3-pentafluoroethyl-[1,2]diazepino[4,5,6-cd]-indol-6-one]	40 nM	–	–
